# Experimental data: ChEMBL document CHEMBL3612015, “Coumarins as anticancer agents: a review on synthetic strategies, mechanism of action and SAR studies” (Eur J Med Chem, 2015)
# Assays:
# [1] = target: Proto-oncogene tyrosine-protein kinase Src (Homo sapiens, UniProt P12931); assay: Inhibition of His6-tagged Src kinase domain (unknown origin) using AEEEIYGEFEAKKKK as substrate preincubated for 10 mins followed by substrate/ATP addition measured after 30 mins by fluorescence assay
# [2] = system: NCI-H522; assay: Cytotoxicity against human NCI-H522 cells assessed as cell growth after 48 hrs by SRB assay relative to control; format: functional
# [3] = Cytotoxicity against human NCI60 cells assessed as cell growth after 48 hrs by SRB assay; format: functional
# [4] = system: MDA-MB-231; assay: Cytotoxicity against human MDA-MB-231 cells assessed as cell growth after 48 hrs by SRB assay relative to control; format: functional
# [5] = system: UO-31; assay: Cytotoxicity against human UO31 cells assessed as cell growth after 48 hrs by SRB assay relative to control; format: functional
# [6] = system: CAKI-1; assay: Cytotoxicity against human CAKI-1 cells assessed as cell growth after 48 hrs by SRB assay relative to control; format: functional
# [7] = system: SK-OV-3; assay: Cytotoxicity against human SKOV3 cells assessed as cell proliferation after 72 hrs by CellTiter 96 aqueous one solution cell proliferation assay relative to control; format: functional
# [8] = system: MDA-MB-468; assay: Cytotoxicity against human MDA-MB-468 cells assessed as cell proliferation after 72 hrs by CellTiter 96 aqueous one solution cell proliferation assay relative to control; format: functional
# [9] = system: MCF7; assay: Cytotoxicity against human MCF7 cells assessed as cell proliferation after 72 hrs by CellTiter 96 aqueous one solution cell proliferation assay relative to control; format: functional
# [10] = system: MCF7; assay: Cytotoxicity against human MCF7 cells assessed as growth inhibition at 200 uM after 48 hrs by MTT assay relative to control; format: functional; conditions: MCF7, 48 h, read-out: GI
# [11] = system: MCF7; assay: Cytotoxicity against human MCF7 cells assessed as growth inhibition at 10 uM after 48 hrs by MTT assay relative to control; format: functional; conditions: MCF7, 48 h, read-out: GI
# [12] = system: MCF7; assay: Cytotoxicity against human MCF7 cells assessed as growth inhibition at 50 uM after 48 hrs by MTT assay relative to control; format: functional; conditions: MCF7, 48 h, read-out: GI
# [13] = system: MCF7; assay: Cytotoxicity against human MCF7 cells assessed as growth inhibition at 100 uM after 48 hrs by MTT assay relative to control; format: functional; conditions: MCF7, 48 h, read-out: GI
# [14] = system: A549; assay: Cytotoxicity against human A549 cells after 48 hrs by crystal violet dye-binding assay; format: functional; conditions: A549, 48 h, read-out: LD50 (the source's name)
# [15] = Cytotoxicity against rat CRL1548 cells after 48 hrs by crystal violet dye-binding assay; format: functional; conditions: CRL1548, 48 h, read-out: LD50 (the source's name)
# [16] = Cytotoxicity against rat CRL1439 cells after 48 hrs by crystal violet dye-binding assay; format: cell-based; conditions: read-out: LD50
# [17] = system: HeLa; assay: Cytotoxicity against human HeLa cells assessed as growth inhibition after 72 hrs by MTT assay; format: functional, cell-based
# [18] = system: HepG2; assay: Cytotoxicity against human HepG2 cells assessed as growth inhibition after 72 hrs by MTT assay; format: functional, cell-based; conditions: HepG2, 72 h
# [19] = system: SW-620; assay: Cytotoxicity against human SW620 cells assessed as growth inhibition after 72 hrs by MTT assay; format: functional, cell-based; conditions: SW-620, 72 h
# [20] = system: MCF7; assay: Cytotoxicity against human MCF7 cells after 48 hrs by trypan blue assay; format: functional, cell-based; conditions: MCF7, 48 h
# [21] = system: MCF7; assay: Cytotoxicity against human MCF7 cells after 48 hrs by MTT assay; format: functional, cell-based; conditions: MCF7, 48 h
# [22] = system: MCF7; assay: Cytotoxicity against human MCF7 cells after 72 hrs by MTT assay; format: functional, cell-based; conditions: MCF7, 72 h
# [23] = system: KETR3; assay: Cytotoxicity against human Ketr3 cells after 72 hrs by MTT assay; format: functional, cell-based; conditions: KETR3, 72 h
# [24] = system: HeLa; assay: Cytotoxicity against human HeLa cells after 72 hrs by MTT assay; format: functional, cell-based
# [25] = system: A2780; assay: Cytotoxicity against human A2780 cells after 72 hrs by MTT assay; format: functional, cell-based; conditions: A2780, 72 h
# [26] = system: Paracentrotus lividus; assay: Antimitotic activity in sea urchin embryo assessed as embryo spinning; format: functional
# [27] = Cytotoxicity against human NCI60 cells assessed as cell growth; format: functional
# [28] = system: Paracentrotus lividus; assay: Antimitotic activity in sea urchin embryo assessed as cleavage arrest; format: functional
# [29] = system: Paracentrotus lividus; assay: Antimitotic activity in sea urchin embryo assessed as cleavage alterations; format: functional
# [30] = Cytotoxicity against human Hep2 cells; format: functional, cell-based; conditions: HEp-2
# [31] = system: Vero; assay: Cytotoxicity against African green monkey Vero cells; format: cell-based; conditions: Chlorocebus sabaeus
# [32] = system: U-937; assay: Cytotoxicity against human U937 cells assessed as decrease in cell viability after 48 hrs; format: functional; conditions: U-937, 48 h
# [33] = system: U-937; assay: Antiproliferative activity against human U937 cells after 3 days; format: functional, cell-based; conditions: U-937, 72 h
# Chain of Proto-oncogene tyrosine-protein kinase Src (P12931 2-536 limits assumed): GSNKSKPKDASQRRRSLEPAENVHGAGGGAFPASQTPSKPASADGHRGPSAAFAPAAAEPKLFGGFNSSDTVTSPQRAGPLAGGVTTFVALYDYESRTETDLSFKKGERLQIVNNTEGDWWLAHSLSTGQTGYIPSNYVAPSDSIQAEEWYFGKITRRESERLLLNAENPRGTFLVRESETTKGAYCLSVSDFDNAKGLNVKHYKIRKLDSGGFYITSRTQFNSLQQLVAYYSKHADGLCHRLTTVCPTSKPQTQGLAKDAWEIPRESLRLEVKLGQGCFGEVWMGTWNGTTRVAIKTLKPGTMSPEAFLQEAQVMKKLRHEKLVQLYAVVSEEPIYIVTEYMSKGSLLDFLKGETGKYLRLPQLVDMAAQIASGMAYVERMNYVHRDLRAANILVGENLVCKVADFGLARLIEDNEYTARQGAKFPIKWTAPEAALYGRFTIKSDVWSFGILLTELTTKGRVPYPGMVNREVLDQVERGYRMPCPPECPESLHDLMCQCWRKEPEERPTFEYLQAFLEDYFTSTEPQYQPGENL
structure (smiles),measurement,setting,value
Nc1ccc2c(C(F)(F)F)cc(=O)oc2c1,IC50,[1],30.9 µM
O=c1oc2ccccc2cc1C1=NN(c2ccccc2)C(c2ccc(O)cc2)C1 (stereo unspecified),Activity,[2],-67.37%
same,Activity,[3],77.59%
same,Activity,[4],-67.37%
same,Activity,[5],-63.77%
same,Activity,[6],-65.18%
CCCCCCc1c(C)c2ccc(N(CC)CCCC(=O)O)cc2oc1=O,IC50,[1],36.5 µM
CCCCCCCCCCc1c(C)c2ccc(N(CC)CCCC(=O)O)cc2oc1=O,IC50,[1],21.6 µM
CCCCCCCCCCc1c(C)c2ccc(N)cc2oc1=O,IC50,[1],73.5 µM
CCc1c(C)c2cc3c(c(O)c2oc1=O)OC(C)(C)CC3,Activity,[7],30%
same,Activity,[8],85%
same,Activity,[9],45%
CCCCCCCCCCc1c(C)c2cc3c(c(O)c2oc1=O)OC(C)(C)CC3,Activity,[7],35%
same,Activity,[8],36%
same,Activity,[9],57%
C=CCOc1cc2oc(=O)cc(-c3nc4ccccc4s3)c2cc1OCC=C,inhibition of growth at 200 µM,[10],70.3%
same,inhibition of growth at 10 µM,[11],18.5%
same,inhibition of growth at 50 µM,[12],25.3%
same,inhibition of growth at 100 µM,[13],43.8%
CC(=O)Oc1ccc(-c2c(-c3ccccc3)c3ccccc3oc2=O)cc1,CC50,[14],89.3 µM
same,CC50,[15],> 100 µM
same,CC50 at 48 h,[16],> 100 µM
CCN(CC)c1ccc2c(C)c(-c3ccc(OC(C)=O)cc3)c(=O)oc2c1,CC50,[14],48.1 µM
same,CC50,[15],45.1 µM
same,CC50 at 48 h,[16],49.1 µM
COc1ccc2c(Cn3cnc(C(N)=O)n3)cc(=O)oc2c1,IC50,[17],35.5 µM
Nc1nc(Cl)c2cnn(Cc3cc(=O)oc4cc(O)ccc34)c2n1,IC50,[18],25.6 µM
same,IC50,[17],34 µM
same,IC50,[19],35.4 µM
Cc1cc(C(=O)c2ccccc2Br)ccc1OCC(=O)NNC(=O)c1cc2ccccc2oc1=O,IC50,[20],7.7 µM
same,IC50,[21],7.6 µM
Cc1ccc(C(=O)c2cc(F)c(OCC(=O)NNC(=O)c3cc4ccccc4oc3=O)c(Cl)c2)cc1,IC50,[20],9.4 µM
same,IC50,[21],9.3 µM
Cc1cc(C(=O)c2ccc(Cl)cc2Cl)ccc1OCC(=O)NNC(=O)c1cc2ccccc2oc1=O,IC50,[20],10.4 µM
same,IC50,[21],10.2 µM
CO[C@@H]1[C@@H](N)[C@@H](O)[C@H](Oc2ccc3cc(NC(=O)c4ccccc4)c(=O)oc3c2Cl)OC1(C)C,IC50,[22],13.8 µM
same,IC50,[23],14.6 µM
same,IC50,[24],5.35 µM
same,IC50,[25],2.83 µM
CO[C@@H]1[C@@H](N)[C@@H](O)[C@H](Oc2ccc3cc(NC(=O)c4ccccc4)c(=O)oc3c2C)OC1(C)C,IC50,[22],8.12 µM
same,IC50,[23],2.14 µM
same,IC50,[24],2.89 µM
same,IC50,[25],7.52 µM
COc1ccc(-c2cc3cc(OC)c(OC)c(OC)c3oc2=O)cc1,EC,[26],>5 µM
same,GI50,[27],3.98 µM
same,EC,[28],4 µM
same,EC,[29],0.2 µM
Cc1cc(=O)oc2ccc(OCNc3ccc(F)cc3)cc12,IC50,[30],3.62 µM
same,IC50,[31],30.7 µM
Cc1cc(=O)oc2ccc(OCNc3ccccc3O)cc12,IC50,[30],4.2 µM
same,IC50,[31],22.9 µM
COc1ccccc1NCOc1ccc2oc(=O)cc(C)c2c1,IC50,[30],5.43 µM
same,IC50,[31],21.3 µM
Cc1cc(=O)oc2cc(O)c(O)cc12 [4-METHYLESCULETIN],CC50,[32],76 µM
O=c1ccc2ccc(O)c(O)c2o1 [DAPHNETIN],CC50,[32],120 µM
same,IC50,[33],83.2 µM
